Experiments:
[1] = target: T1, human TRPV1 receptor (hTRPV1) (Homo sapiens (Human), UniProt Q8NER1); experiment: Acid activation assay (pH 5.0, FLIPR intracellular Ca2+); type: cell-based; details: Table 2; 37.5 μM compound; percentage of maximal pH 5.0-induced response
[2] = system: rats; experiment: Rat tail immersion assay (noxious thermosensation, 55° C. water bath); type: in vivo; details: rat, relative to vehicle
Method: Compounds were tested for their effects on noxious thermosensation using the tail immersion assay. Testing was performed one hour following oral administration of 100 μmol/kg of the compound in 10% ethanol/20% Tween-80/70% PEG-400 (2 mL/kg). Mophine (6 mg/kg) was administered interperitoneally (i.p.) using saline (2 mL/kg) as the vehicle. For testing, a circulating water bath was heated to 55° C. Thirty to sixty minutes post dosing, the rats were handled for a few seconds to calm them down and then cupped with their back against the testers hand at a slight angle with head facing away from tester. With rat in one hand and a 0.01 second stopwatch in the other hand, the tail was quickly immersed 6-8 cm in water bath or to a distance leaving 2-3 cm of tail out of water. The timer was started simultaneously. When the rat flinched or attempted withdrawal, timer was immediately stopped and the rat's tail was quickly removed from water bath. This response latency (in seconds) was recorded. Process was repeated 3 times with 3-4 minutes between readings for a final average.
For a given example, a percent increase in the average response latency (in seconds) for tail withdrawal relative to a vehicle control was determined % increase=[(tc−tv)/tv]×100%
tc=response time (in seconds) with oral dosing of compounds
tv=response time (in seconds) with oral dosing of vehicle
The % increases in tail withdrawal latency relative to vehicle control are divided into the following categories: […]

[3] = target: T1, human TRPV1 receptor (hTRPV1); experiment: Capsaicin activation assay (FLIPR intracellular Ca2+); type: cell-based; details: Table 2; capsaicin-induced intracellular Ca2+ increase; read-out: human TRPV1 capsaicin IC50
Method in brief: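 Recombinant HEK293 cells stably expressing hTRPV1, Calcium-4 dye loaded 90–120 min at room temperature, were preincubated with compound (12-point, one-third-log) for 3 min before capsaicin challenge. Peak FLIPR fluorescence minus baseline was normalised to capsaicin control response; IC50 from four-parameter logistic fit.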

[4] = oral 100 μmol/kg, one hour post dosing

T1 sequence (Q8NER1 whole entry): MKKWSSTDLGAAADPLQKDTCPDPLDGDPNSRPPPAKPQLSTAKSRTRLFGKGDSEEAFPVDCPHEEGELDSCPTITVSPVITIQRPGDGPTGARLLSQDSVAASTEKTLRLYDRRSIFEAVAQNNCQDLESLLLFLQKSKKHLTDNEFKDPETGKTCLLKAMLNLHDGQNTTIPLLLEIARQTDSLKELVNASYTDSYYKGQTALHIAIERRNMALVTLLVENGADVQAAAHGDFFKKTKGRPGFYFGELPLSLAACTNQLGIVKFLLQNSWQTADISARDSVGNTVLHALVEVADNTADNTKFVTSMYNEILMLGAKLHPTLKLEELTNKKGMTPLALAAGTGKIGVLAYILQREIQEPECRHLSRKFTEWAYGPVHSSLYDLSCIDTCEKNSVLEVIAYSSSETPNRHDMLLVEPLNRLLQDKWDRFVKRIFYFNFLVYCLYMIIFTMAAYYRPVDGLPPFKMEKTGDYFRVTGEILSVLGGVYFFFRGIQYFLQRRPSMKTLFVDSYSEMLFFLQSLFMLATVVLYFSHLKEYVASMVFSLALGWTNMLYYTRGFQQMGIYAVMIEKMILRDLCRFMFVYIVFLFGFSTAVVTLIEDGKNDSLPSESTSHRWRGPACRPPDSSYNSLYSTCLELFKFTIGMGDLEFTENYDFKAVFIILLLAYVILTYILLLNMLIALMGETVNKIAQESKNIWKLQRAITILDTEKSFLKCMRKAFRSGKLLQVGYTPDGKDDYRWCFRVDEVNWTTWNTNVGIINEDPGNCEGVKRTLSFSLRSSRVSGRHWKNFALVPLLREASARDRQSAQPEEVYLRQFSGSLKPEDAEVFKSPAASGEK

| Compound | human TRPV1 H+ (max % remain) [1] | % Increase in Tail Withdrawal Latency [2, 4] | IC50 [3] | % Increase in Tail Withdrawal Latency ([2]; morphine 6 mg/kg i.p. in saline) |
| --- | --- | --- | --- | --- |
| CC(=O)Nc1nc2c(Oc3cc(-c4ccc(C(F)(F)F)cc4)ncn3)cccc2s1 [A, reference compound] | 10% | +++ (greater than or equal to 25% increase) |  |  |
| CC(C)(C)c1ccc(Nc2ncnc3cc(-c4ncccc4C(F)(F)F)ccc23)cc1 [B, reference compound] | 1% | +++ (greater than or equal to 25% increase) |  |  |
| CC(C)(C)c1ccc2c(c1)CC[C@H]2NC(=O)Nc1cccc2[nH]cnc12 [C, reference compound] | 1% | +++ (greater than or equal to 25% increase) | 35 nM |  |
| Cc1nc(Nc2cccc3c2C[C@H](O)CC3)oc1-c1ccc(C(F)(F)F)cc1 [D, reference compound] | 3% | +++ (greater than or equal to 25% increase) |  |  |
| Cc1cccnc1N1CC=C(C(=O)Nc2ccc(S(=O)(=O)C(F)(F)F)cc2)CC1 [E, reference compound] | 2% | +++ (greater than or equal to 25% increase) |  |  |
| CN1CC[C@]23c4c5ccc(O)c4O[C@H]2[C@@H](O)C=C[C@H]3[C@H]1C5 [Morphine] |  |  |  | +++ (greater than or equal to 25% increase) |
